No end group written: not given here.
Legend:
guinea pig ileum = settings: agonist reference value; cited from earlier work
[1] = system: intracellular Ca++ release, human lung cancer cell lines; settings: Bunn et al. 1992; cited from earlier work
rat uterus = settings: agonist reference value; cited from earlier work
SCLC cell lines [2] = experiment: Apoptosis in SCLC / lung cancer cells; type: cell-based, human; settings: inhibitory concentrations; data not shown
SCLC cell lines [3] = experiment: Growth of SCLC cell lines (MTT assay); type: cell-based, human; settings: result in words
Description: (§1) The effectiveness of the antagonist compounds in inhibiting cancer cell growth in vitro was determined using a panel of human lung cancer cell lines: SCLC--SHP77, H345 and NSCLC--A549, H450; breast carcinoma McF7, normal human epithelial BEAS and normal human skin fibroblast FS 15 were used to study the specificity and cytotoxicity of the BK antagonist dimers. Cell lines were treated with various concentrations of dimers for 5 to 7 days and cell viability were measured with routine MTT assay. Cells treated with BK dimers were also be evaluated for apoptosis using our newly developed cytometric technique.
(§2) Cellular growth and survival was measured by a rapid colorimetric assay, based on the tetrazolium salt MTT, (3-(4,5-dimethylthiazol-2-yl)-2,5-diphenyl tetrazolium bromide), developed by Mosmann (J. of Immun. Methods, 65, 55-63, 1983) with minor modifications. Briefly, 1,000 normal lung fibroblasts or normal epithelial BEAS-2B cells, 1,000 or 5,000 viable NSCLC cell and 10,000 viable SCLC cell were plated in a 100 μl volume of growth medium in 96 well flat-bottomed microtiter plates. The cells were allowed to recover overnight. Bradykinin antagonists at various concentrations were added to the cells in triplicates and the plates were incubated at 37° C., 5% CO2 with 100% humidity. […] Absorbance at 490 nm was immediately determined using a scannning multiwell plate reader.

SCLC cell line SHP-77 = experiment: Colorimetric MTT assay, growth of SCLC cell line SHP-77; type: cell-based, human
Description: as §1
as §2, with “reader. […]” for “reader.”

[4] = system: Calcium flux in response to CCK; experiment: Calcium flux assay, response to CCK or gastrin; type: cell-based
Description: (§3) Briefly, mechanically dispersed single cell suspensions of plateau phase cells (7 days after splitting) were suspended in 20 mM HEPES/BSS buffer (20 mM Hepes/140 mM NaCl/5mM KCI/1 mM MgCl2 /5 mM Glucose) adjusted to pH 6,8 at 37° C. The acetoxymethyl ester form of Indo-1 (Indo-AM) at 5 μM was incubated with the cells for 30 min at 37° C. and then diluted with 1:1 with 20 mM HEPES/BSS buffer, pH 7.4 to raise the final pH to 7.1 followed by a second 30-min incubation at 37° C.
(§4) UV excitation (80 mW at 360 nm) was delivered by a model INNOVA 90/5 argon ion laser (Coherent, Palo Alto, Calif.). […] Thus, the ratio of the 410 nm fluorescence/490 nm fluorescence constitutes a measure of the changes in calcium ions liberated form intracellular stores (Endoplasmic reticulum) in response to various stimuli. Viable, loaded cells were distinguished by the machine form debris, dead cells, and unloaded cells by forward angle and 90° light scatter and 490 nm fluorescence. […] Data were collected by the MDADS computer including 410 nm and 490 nm fluorescence intensities and the ratio of 410/490 fluorescence intensity was secured as a function of time. […] The data were analyzed by a program developed by Philip Jewett.

Stability in plasma = type: in vitro ADME
[5] = system: Calcium flux in response to BK; experiment: Calcium flux assay, response to BK; type: cell-based; settings: read-out: IC50 Ca2+ (BK)
Description: as §3, §4

Molecule	pD2 (negative logarithm of the dose of bradykinin that causes half-maximal contraction) (guinea pig ileum)	stimulation of intracellular Ca++ release [1]	pD2 (negative logarithm of the dose of bradykinin that causes half-maximal contraction) (rat uterus)	apoptotic response in SCLC cell lines (SCLC cell lines [2])	growth inhibition, SCLC cell lines (SCLC cell lines [3])	effect on SCLC growth (SCLC cell line SHP-77; concentration up to 40 μM, SHP-77)	IC50 (SCLC cell line SHP-77; growth of SCLC cell line SHP-77)	% Inhibition CCK Ca2+ [4]	stable in plasma (Stability in plasma)	half-life (Stability in plasma; stability in plasma, read-out: Plasma t1/2)	IC50 [5]
RPPGFSPFR [bradykinin, Arg^1 -Pro^2 -Pro^3 -Gly^4 -Phe^5 -Ser^6 -Pro^7 Phe^8 -Arg^9]	7.4	most potent peptide stimulant of intracellular Ca^++ release	7.9								
NC(N)=NCCC[C@@H](N)C(=O)N[C@@H](CCCN=C(N)N)C(=O)N1CCC[C@H]1C(=O)N1C[C@H](O)C[C@H]1C(=O)NCC(=O)N[C@@H](Cc1cccs1)C(=O)N[C@@H](CO)C(=O)N1Cc2ccccc2C[C@@H]1C(=O)N1[C@H](C(=O)N[C@@H](CCCN=C(N)N)C(=O)O)C[C@@H]2CCCC[C@@H]21 [Compound B116]				no growth inhibition or apoptotic response	no growth inhibition	little effect	> 40000 nM	0%	stable in plasma	> 24 h	10 nM

Reference: patent US5849863A, “Cytolytic bradykinin antagonists” (University of Colorado, priority 1995, dated 1998)
